Experimental data: ChEMBL document CHEMBL3797052 (Eur J Med Chem, 2016)

Legend:
Assay type in all cases: functional
[1] = Antiproliferative activity against human HOP92 cells assessed as cell growth at 10^-5 M after 48 hrs by sulforhodamine B assay; details: HOP-92, 48 h, read-out: Activity
NCI-H322M = assay: Antiproliferative activity against human NCI-H322M cells assessed as cell growth at 10^-5 M after 48 hrs by sulforhodamine B assay; details: read-out: Activity
[2] = Antiproliferative activity against human HCT116 cells assessed as cell growth at 10^-5 M after 48 hrs by sulforhodamine B assay; details: HCT-116, 48 h, read-out: Activity
A549 = assay: Antiproliferative activity against human A549/ATCC cells assessed as cell growth at 10^-5 M after 48 hrs by sulforhodamine B assay; details: A549, 48 h, read-out: Activity
[3] = Antiproliferative activity against human HCC2998 cells assessed as cell growth at 10^-5 M after 48 hrs by sulforhodamine B assay; details: HCC 2998, 48 h, read-out: Activity
[4] = Antiproliferative activity against human Hs 578T cells assessed as cell growth at 10^-5 M after 48 hrs by sulforhodamine B assay; details: read-out: Activity
[5] = Antiproliferative activity against human DU145 cells assessed as cell growth at 10^-5 M after 48 hrs by sulforhodamine B assay; details: DU-145, 48 h, read-out: Activity
[6] = Cytotoxicity against human HCT116 cells assessed as growth inhibition at 10 uM after 2 days by MTT assay; details: HCT-116, 48 h, read-out: GI
SR = assay: Antiproliferative activity against human SR cells assessed as cell growth at 10^-5 M after 48 hrs by sulforhodamine B assay; details: read-out: Activity
[7] = Antiproliferative activity against human COLO205 cells assessed as cell growth at 10^-5 M after 48 hrs by sulforhodamine B assay; details: COLO 205, 48 h, read-out: Activity
[8] = Antiproliferative activity against human HOP62 cells assessed as cell growth at 10^-5 M after 48 hrs by sulforhodamine B assay; details: HOP-62, 48 h, read-out: Activity
MDA-MB-435 = assay: Antiproliferative activity against human MDA-MB-435 cells assessed as cell growth at 10^-5 M after 48 hrs by sulforhodamine B assay; details: MDA-MB-435, 48 h, read-out: Activity
EKVX = assay: Antiproliferative activity against human EKVX cells assessed as cell growth at 10^-5 M after 48 hrs by sulforhodamine B assay; details: read-out: Activity
[9] = Antiproliferative activity against human MOLT4 cells assessed as cell growth at 10^-5 M after 48 hrs by sulforhodamine B assay; details: MOLT-4, 48 h, read-out: Activity
786-0 = assay: Antiproliferative activity against human 786-0 cells assessed as cell growth at 10^-5 M after 48 hrs by sulforhodamine B assay; details: 786-0, 48 h, read-out: Activity
MDA-MB-231 = assay: Antiproliferative activity against human MDA-MB-231 cells assessed as cell growth at 10^-5 M after 48 hrs by sulforhodamine B assay; details: MDA-MB-231, 48 h, read-out: Activity
NCI-H460 = assay: Antiproliferative activity against human NCI-H460 cells assessed as cell growth at 10^-5 M after 48 hrs by sulforhodamine B assay; details: NCI-H460, 48 h, read-out: Activity
[10] = Antiproliferative activity against human SF295 cells assessed as cell growth at 10^-5 M after 48 hrs by sulforhodamine B assay; details: SF-295, 48 h, read-out: Activity
[11] = Cytotoxicity against human HCT116 cells assessed as growth inhibition at 100 uM after 2 days by MTT assay; details: HCT-116, 48 h, read-out: GI
[12] = Cytotoxicity against human SKBR3 cells assessed as growth inhibition at 100 uM after 2 days by MTT assay; details: SK-BR-3, 48 h, read-out: GI
KM12 = assay: Antiproliferative activity against human KM12 cells assessed as cell growth at 10^-5 M after 48 hrs by sulforhodamine B assay; details: KM12, 48 h, read-out: Activity
[13] = Antiproliferative activity against human PC3 cells assessed as cell growth at 10^-5 M after 48 hrs by sulforhodamine B assay; details: PC-3, 48 h, read-out: Activity
[14] = Antiproliferative activity against human LOXIMVI cells assessed as cell growth at 10^-5 M after 48 hrs by sulforhodamine B assay; details: LOX IMVI, read-out: Activity
[15] = Antiproliferative activity against human UACC62 cells assessed as cell growth at 10^-5 M after 48 hrs by sulforhodamine B assay; details: UACC-62, 48 h, read-out: Activity
[16] = Antiproliferative activity against human UO31 cells assessed as cell growth at 10^-5 M after 48 hrs by sulforhodamine B assay; details: UO-31, 48 h, read-out: Activity
NCI-H226 = assay: Antiproliferative activity against human NCI-H226 cells assessed as cell growth at 10^-5 M after 48 hrs by sulforhodamine B assay; details: NCI-H226, 48 h, read-out: Activity
[17] = Antiproliferative activity against human OVCAR3 cells assessed as cell growth at 10^-5 M after 48 hrs by sulforhodamine B assay; details: OVCAR-3, 48 h, read-out: Activity
[18] = Antiproliferative activity against human HCT15 cells assessed as cell growth at 10^-5 M after 48 hrs by sulforhodamine B assay; details: HCT-15, 48 h, read-out: Activity
[19] = Antiproliferative activity against human SNB75 cells assessed as cell growth at 10^-5 M after 48 hrs by sulforhodamine B assay; details: SNB-75, 48 h, read-out: Activity
T47D = assay: Antiproliferative activity against human T47D cells assessed as cell growth at 10^-5 M after 48 hrs by sulforhodamine B assay; details: read-out: Activity
NCI-H522 = assay: Antiproliferative activity against human NCI-H522 cells assessed as cell growth at 10^-5 M after 48 hrs by sulforhodamine B assay; details: NCI-H522, 48 h, read-out: Activity
[20] = Antiproliferative activity against human BT549 cells assessed as cell growth at 10^-5 M after 48 hrs by sulforhodamine B assay; details: BT-549, 48 h, read-out: Activity
[21] = Antiproliferative activity against human OVCAR5 cells assessed as cell growth at 10^-5 M after 48 hrs by sulforhodamine B assay; details: OVCAR-5, 48 h, read-out: Activity
[22] = Antiproliferative activity against human IGROV1 cells assessed as cell growth at 10^-5 M after 48 hrs by sulforhodamine B assay; details: IGROV-1, 48 h, read-out: Activity
Malme-3M = assay: Antiproliferative activity against human MALME-3M cells assessed as cell growth at 10^-5 M after 48 hrs by sulforhodamine B assay; details: read-out: Activity
[23] = Cytotoxicity against human SKBR3 cells assessed as growth inhibition at 10 uM after 2 days by MTT assay; details: SK-BR-3, 48 h, read-out: GI
[24] = Antiproliferative activity against human SNB19 cells assessed as cell growth at 10^-5 M after 48 hrs by sulforhodamine B assay; details: SNB-19, 48 h, read-out: Activity

| SMILES | growth at 10 µM [1] [%] | growth at 10 µM (NCI-H322M) [%] | growth at 10 µM [2] [%] | growth at 10 µM (A549) [%] | growth at 10 µM [3] [%] | growth at 10 µM [4] [%] | growth at 10 µM [5] [%] | inhibition of growth at 10 µM [6] [%] | growth at 10 µM (SR) [%] | growth at 10 µM [7] [%] | growth at 10 µM [8] [%] | growth at 10 µM (MDA-MB-435) [%] | growth at 10 µM (EKVX) [%] | growth at 10 µM (786-0) [%] | growth at 10 µM (MDA-MB-231) [%] | growth at 10 µM (NCI-H460) [%] | growth at 10 µM [10] [%] | inhibition of growth at 100 µM [11] [%] | inhibition of growth at 100 µM [12] [%] | growth at 10 µM (KM12) [%] | other results |
| --- | --- | --- | --- | --- | --- | --- | --- | --- | --- | --- | --- | --- | --- | --- | --- | --- | --- | --- | --- | --- | --- |
| CNC(=O)c1cc(Oc2ccc3nc(NC(=O)c4ccc5ncccc5c4)sc3c2)ccn1 | 110 | 99 | 103 | 76.5 | 106 | 108 | 105 | 22.5 | 88.8 | 95.8 | 112 | 91.6 | 87.5 | 98.4 | 98.6 | 98.6 | 86.9 | 72.3 | 29.6 | 101 | growth at 10 µM [9]: 94.2%; growth at 10 µM [13]: 93.2%; growth at 10 µM [14]: 99.6%; growth at 10 µM [15]: 94.9%; growth at 10 µM [16]: 77%; growth at 10 µM (NCI-H226): 68.6%; growth at 10 µM [17]: 98.9%; growth at 10 µM [18]: 91.1%; growth at 10 µM [19]: 86.5%; growth at 10 µM (T47D): 51.3%; growth at 10 µM (NCI-H522): 54.3%; growth at 10 µM [20]: 82.3%; growth at 10 µM [21]: 106%; growth at 10 µM [22]: 93.3%; growth at 10 µM (Malme-3M): 80.5%; inhibition of growth at 10 µM [23]: 17.1%; growth at 10 µM [24]: 95.1% |
| CNC(=O)c1cc(Oc2ccc3nc(NC(=O)Nc4ccc(Cl)cc4)sc3c2)ccn1 | 63.3 | 66.8 | 47.3 | 44.1 | 86.5 | 30.1 | 53.2 | 57.4 | 42.7 | 79.4 | 6.54 | 64.1 | 53.8 | 75.3 | 34.4 | 64.3 | 66.3 | 85.2 | 77.4 | 70 | growth at 10 µM [9]: 85.4%; growth at 10 µM [13]: 66%; growth at 10 µM [14]: 51.6%; growth at 10 µM [16]: 62.5%; growth at 10 µM (NCI-H226): 67.9%; growth at 10 µM [17]: 48.8%; growth at 10 µM [18]: 84.8%; growth at 10 µM [19]: 50.6%; growth at 10 µM (T47D): 44%; growth at 10 µM (NCI-H522): 78%; growth at 10 µM [20]: 102%; growth at 10 µM [21]: 92.3%; growth at 10 µM [22]: 83.6%; growth at 10 µM (Malme-3M): 17.7%; inhibition of growth at 10 µM [23]: 50.8%; growth at 10 µM [24]: 59.3% |
| CNC(=O)c1cc(Oc2ccc3nc(NC(=O)Nc4cc(C(F)(F)F)cc(C(F)(F)F)c4)sc3c2)ccn1 | -69 | -57 | -90 | -91 | -64 | -34 | -69 | 87.5 | -47 | -79 | -72 | -69 | -31 | -89 | -64 | -75 | -89 | 98.4 | 96.3 | -58 | growth at 10 µM [13]: -65%; growth at 10 µM [14]: -93%; growth at 10 µM [15]: -77%; growth at 10 µM [16]: -87%; growth at 10 µM (NCI-H226): -57%; growth at 10 µM [17]: -93%; growth at 10 µM [18]: -70%; growth at 10 µM [19]: -66%; growth at 10 µM (T47D): -56%; growth at 10 µM (NCI-H522): -58%; growth at 10 µM [20]: -71%; growth at 10 µM [21]: -64%; growth at 10 µM [22]: -62%; growth at 10 µM (Malme-3M): -74%; inhibition of growth at 10 µM [23]: 88.1%; growth at 10 µM [24]: -34% |
